Laboratory results from patent publication US12258337B2, “Bicyclic CX3CR1 receptor agonists” (Board of Regents, The University of Texas System, priority 2019, dated 2025).

How the values were obtained:
hCX3CR1 = target: T1, hCX3CR1 (Homo sapiens, UniProt P49238); experiment: GTPγ[35S] Scintillation Proximity Assay, CHO-K1 cell membranes; assay type: biochemical; parameters: expressed in transfected cells; host or cells: CHO-K1 cell membranes
T1 sequence (P49238 1-355): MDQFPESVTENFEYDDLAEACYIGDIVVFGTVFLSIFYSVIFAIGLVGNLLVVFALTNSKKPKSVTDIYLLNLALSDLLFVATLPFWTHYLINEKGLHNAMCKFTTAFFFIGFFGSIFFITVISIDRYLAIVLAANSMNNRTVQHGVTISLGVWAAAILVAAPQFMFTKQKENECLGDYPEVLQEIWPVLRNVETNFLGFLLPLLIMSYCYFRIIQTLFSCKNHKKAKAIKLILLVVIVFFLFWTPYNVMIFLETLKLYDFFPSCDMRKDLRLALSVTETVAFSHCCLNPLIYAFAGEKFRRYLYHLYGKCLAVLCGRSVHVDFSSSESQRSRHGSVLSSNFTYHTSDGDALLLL
Method: (§1) GTPγ[^35S] Scintillation Proximity Assay
(§2) Compounds were tested for agonist activity at the mouse and human CX3CR1 receptor using cell membranes from CHO-K1 cells expressing recombinant mouse or human CX3CR1. For agonist testing, membranes are mixed with GDP. In parallel, GTPγ[^35S] is mixed with the beads just before starting the reaction. The following reagents are successively added in the wells of an Optiplate (Perkin Elmer): 50 μL of test or reference ligand, 10 μL of assay buffer, 20 μL of the membranes:GDP mix, and 20 μL of the GTPγ[^35S]:beads mix. The plates are covered with a top seal, mixed on an orbital shaker for 2 min, and then incubated for 1 hour at room temperature. Then the plates are centrifuged for 10 min at 2000 rpm, incubated at room temperature 1 hour and counted for 1 min/well with a PerkinElmer TopCount reader.

mouse CX3CR1 receptor = target: T2, mouse CX3CR1 receptor (Mus musculus, UniProt Q9Z0D9); experiment: as above; assay type: biochemical
T2 construct: expressed in transfected cells; host or cells: CHO-K1 cell membranes
T2 sequence (Q9Z0D9 1-354): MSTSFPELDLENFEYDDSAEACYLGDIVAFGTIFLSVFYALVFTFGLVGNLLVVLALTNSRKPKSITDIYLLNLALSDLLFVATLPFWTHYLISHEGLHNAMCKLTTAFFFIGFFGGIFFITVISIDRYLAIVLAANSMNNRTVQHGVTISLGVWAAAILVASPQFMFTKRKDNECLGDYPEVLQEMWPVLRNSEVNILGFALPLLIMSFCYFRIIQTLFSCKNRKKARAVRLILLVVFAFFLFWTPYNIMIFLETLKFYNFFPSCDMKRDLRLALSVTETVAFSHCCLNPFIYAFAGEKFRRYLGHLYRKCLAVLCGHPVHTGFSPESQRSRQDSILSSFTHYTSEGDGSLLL
Method: as §1, §2

[1] = system: THP-1 cell adhesion to HepG2 cells; experiment: CX3CR1-dependent THP-1 cell adhesion to HepG2 cells; assay type: cell-based; details: THP-1 pre-treated with compound 30 min, FIG. 1
Method: CX3CR1 Agonists Prevent CX3CR1-Dependent THP-1 Cell Adhesion to HepG2 Cells
This assay measures the adhesion of THP-1 monocytes, which constitutively express CX3CR1, to HepG2 cells, a fractalkine-expressing cell line. Briefly, HepG2 cells were seeded at 80,000 cells per well in 96-well plates and allowed to form a monolayer overnight. The following day, THP-1 cells (at 2×10^6 cells/mL) were fluorescently labeled with Calcein-AM (5 μM) and pre-treated with compound at the doses indicated for 30 min. Labeled THP-1 cells were subsequently seeded (50,000/well) into the HepG2-containing plates and incubated for 30 min before imaging for Calcein-AM signal on the INCell Analyzer Imaging System. After four washes, the plates were imaged once again to calculate THP-1 cell adhesion, as measured by the percentage of cells remaining on the plates. […] These agonists behave as functional antagonists in the cell adhesion assay by blocking the interaction between CX3CR1 and fractalkine.

SMILES | EC50 (hCX3CR1) [µM] | Emax (hCX3CR1) [%] | EC50 (mouse CX3CR1 receptor) [µM] | Emax (mouse CX3CR1 receptor) [%] | THP-1 cell adhesion to HepG2 cells [1]
CN(C)CC(C)(C)CNC(=O)c1cc2c(s1)CCCCCC2 [Example 70, N-[3-(dimethylamino)-2,2-dimethylpropyl]-4,5,6,7,8,9-hexahydrocycloocta[b]thiophene-2-carboxamide] | 4.1 | 61 | > 50 | 26 | 
CN(C)CC1(CNC(=O)c2cc3c(s2)CCCCCC3)CCCC1 [Example 2, N-[[1-[(dimethylamino)methyl]cyclopentyl]methyl]-4,5,6,7,8,9-hexahydrocycloocta[b]thiophene-2-carboxamide] | 0.8 | 80 | 8.5 | 55 | prevented THP-1 adhesion to HepG2 cells in a dose-dependent manner
CC(C)(CNC(=O)c1cc2c(s1)CCCCCC2)CN1CCCC1 [Example 1, N-(2,2-dimethyl-3-pyrrolidin-1-ylpropyl)-4,5,6,7,8,9-hexahydrocycloocta[b]thiophene-2-carboxamide] | 1.3 | 60 | 41.4 | 44 | prevented THP-1 adhesion to HepG2 cells in a dose-dependent manner
